The values below come from US20240325340A1, “ISOFORM SPECIFIC AGONISTS TARGETING AKT KINASE” (Thomas Jefferson University, priority 2021, published 2024).

One series has as its target recombinant pAkt1 (Homo sapiens, UniProt P31749). The experiment in a line: Recombinant phospho-Akt dephosphorylation by PP2A or total cellular phosphatase extracts (immunoblot pT308). In kind it is biochemical. Conditions: 40 μM compound, 30 minutes at 30° C. As to the method:
FIG. 1A: Recombinant phospho-Akt (50 ng) were pre-mixed with DMSO or with 40 μM 4H-Chromenes with carboxylate side chain (SC-79 and HA-14) or with 60 μM malononitrile side chain (T625) at 4° C. Then recombinant PP2A (70 ng PP2A-C) or total cellular phosphatase extracts were added and incubated for 30 minutes at 30° C. After incubation, protein extracts were subjected to immunoblot analysis using antibodies detecting phosphorylated Akt (T308), total Akt and PP2A catalytic subunit. FIG. 1B comprises a graph showing the percentage of Akt dephosphorylation at 30 minutes (Dephos. %) (n=6) *P<0.01 vs. DMSO.

A short description of another series: Compound stability. In kind it is physicochemical.
The subject of a further series is cells. As to the kind of experiment: Cellular toxicity (cells not specified). In kind it is cell-based.
Series [1] has as its system Akt. As to the kind of experiment: Akt activation (phospho-T308, p-PRAS40) in human epithelial cells (Hacat). The class given is cell-based. The settings on record: for efficacy in Akt activation compared to RA97 / length of action in Akt activation compared to RA97 / phosphorylation of Akt substrate PRAS40: 40 μM, serum-starved Hacat; for efficacy in Akt activation compared to RA97 / length of action in Akt activation compared to RA97: 2 hr, 4 hr or 24 hr; for synergy with FBS in Akt activation: 10 μM or 20 μM with 0.25% fetal bovine serum; for synergy with FBS in Akt activation / Akt activation at low dose (phospho-T308): Hacat; for synergy with FBS in Akt activation / Akt activation at low dose (phospho-T308) / phosphorylation of Akt substrate PRAS40: 6 hr; for Akt activation at low dose (phospho-T308): 10 μM or 20 μM. As for the experimental part: FIGS. 6A-6D illustrate immunoblots for Akt activators converted from non-PAINS Akt antagonists. FIG. 6A: 40 μM of each compound derived from sulfonamides, di-tert butylphenols, or pyridines were incubated in human epithelial cells (A549) for 2.5 hr. Lysates were probed for phospho-T308 and total Akt (tAkt) using ProteinSimple WES digital western system. Insulin was uses as positive control. […] 40 μM of each compound was incubated in serum-starved human epithelial cells (Hacat) for 2 hr, 4 hr, or 24 hr as indicated. Cell lysates were probed for phospho-T308 and total Akt (tAkt). […] 10 μM or 20 μM of T775 or T776 were incubated with or without 0.25% fetal bovine serum (FBS) medium in human epithelial cells (Hacat) for 6 hr. Cell lysates were probed for phospho-T308, total Akt (tAkt), and GAPDH. […] 40 μM of each compound was incubated in serum-starved human epithelial cells (Hacat) for 6 hr. Cell lysates were probed for phospho-T308, total Akt (tAkt), Akt substrate, p-PRAS40, and GAPDH.

In series [2] the test system is Akt. The experiment in a line: Ceramide and cathepsin G blockade of insulin activation of Akt in H9C2 myoblasts. The class given is cell-based. As for the experimental part: H9C2 myoblasts or neonatal rat myocytes were treated with neutrophil protease Cathepsin G (0.01 U/mL), 4 hr or with 100 μM C2-Ceramide (100 μM), 2 hr. Then cells were stimulated with insulin with or without 30 μM T625 for 30 minutes. Lysates were immunoblotted with the indicated antibodies.

The subject of a further series is A549 cells. As to the kind of experiment: Cytotoxicity by release of lactate dehydrogenase (LDH) in A549 cells. The class given is cell-based, human. The settings on record: 40 μM, 24 hours, serum-free media. As to the method:
Cytotoxicity was determined by the release of lactate dehydrogenase (LDH) into cell culture media. A549 cells were incubated with 40 μM of each compound for 24 hours in serum-free media (n=3 for each compound). FIG. 8B: A visual assessment of cell morphology after 24 hrs treatment with 40 μM of each compound in serum-free media. 100× images are shown.

Another series concerns Hacat cells. As to the kind of experiment: Cellular toxicity / cell morphology in Hacat cells after 24 hrs. In kind it is cell-based, human. Conditions: 40 μM.
The conditions of series [3]: cited from earlier work.

Entries after “also recorded” stand apart in the source; their conditions may differ.

Sequence of recombinant pAkt1 (P31749 whole entry): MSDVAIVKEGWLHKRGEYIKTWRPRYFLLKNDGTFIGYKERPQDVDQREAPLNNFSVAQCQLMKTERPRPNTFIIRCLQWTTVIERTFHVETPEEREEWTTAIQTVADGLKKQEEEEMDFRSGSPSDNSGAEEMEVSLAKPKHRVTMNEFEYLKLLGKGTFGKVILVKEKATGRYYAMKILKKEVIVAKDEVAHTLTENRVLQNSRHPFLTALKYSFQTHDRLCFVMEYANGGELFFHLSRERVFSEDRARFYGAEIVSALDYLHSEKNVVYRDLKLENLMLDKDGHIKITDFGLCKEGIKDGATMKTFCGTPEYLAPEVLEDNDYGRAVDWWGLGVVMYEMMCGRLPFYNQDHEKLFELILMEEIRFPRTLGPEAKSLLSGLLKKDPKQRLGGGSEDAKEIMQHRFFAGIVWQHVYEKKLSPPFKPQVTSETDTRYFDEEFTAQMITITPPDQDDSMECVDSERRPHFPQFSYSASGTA

Regarding `CCOC(=O)C1=C(N)Oc2ccc(Br)cc2C1C(C#N)C(=O)OCC` (centres unmarked) [HA14], the “block of recombinant pAkt1 dephosphorylation by PP2A and cellular phosphatases” value at recombinant pAkt1 is “enhance intrinsic resistance of the Akt kinase to dephosphorylation; also recorded: block recombinant pAkt1 dephosphorylation by PP2A and cellular phosphatases”. In addition, the compound stability result in “Compound stability” is on record as “highly labile”. In addition, the cellular toxicity result in the series with cells is listed as “toxic to cells”.

`CCOC(=O)C1=C(N)Oc2ccc(Cl)cc2C1C(C#N)C(=O)OCC` (centres unmarked) [SC79]: on recombinant pAkt1, the “block of recombinant pAkt1 dephosphorylation by PP2A and cellular phosphatases” value is “enhance intrinsic resistance of the Akt kinase to dephosphorylation; also recorded: block recombinant pAkt1 dephosphorylation by PP2A and cellular phosphatases”. Also, in “Compound stability”, the compound stability result is listed as “highly labile”. For the same molecule, the cellular toxicity entry in the series on cells is “toxic to cells”.

As for `CCCc1nc2ccc(Cl)cc2c(-c2ccccc2)c1C(=O)OCC` [T748, ethyl 6-chloro-4-phenyl-2-propylquinoline-3-carboxylate], in the series on Akt [1], the “efficacy in Akt activation compared to RA97” value (from here on “efficacy … compared to RA97”) is given as “improved efficacy” and the “length of action in Akt activation compared to RA97” value (“length of action … compared to RA97” below) is recorded as “improved length of action”. Further, the “toxicity compared to RA97” value in the series with cells is “lack of toxicity”.

Regarding `CCCCCCCCCCCCC/C=C/[C@@H](O)[C@H](CO)NC(C)=O` [C2-ceramide, reference compound], in the series on Akt [2] (100 μM, 2 hr), the “block of insulin activation of Akt” value is given as “block insulin activation of Akt”.

Turning to `CCOC(=O)CCc1c(C(=O)OCC)c(C(C)(C)C)nc2ccc(Cl)cc12` [T776, ethyl 2-tert-butyl-6-chloro-4-(3-ethoxy-3-oxopropyl)quinoline-3-carboxylate], in the series on Akt [1], the “synergy with FBS in Akt activation” value is on record as “synergize with FBS”, the “Akt activation at low dose (phospho-T308)” value is “activate Akt”, the “efficacy … compared to RA97” value was “improved efficacy” and the “length of action … compared to RA97” value is “improved length of action”. In addition, the “phosphorylation of Akt substrate PRAS40” value in the series on Akt [1] is “phosphorylated Akt substrate, PRAS40”. Further, the “cellular toxicity (LDH release)” value with A549 cells is recorded as “failed to show significant cellular toxicity”. Besides, the cellular toxicity result in the series on Hacat cells is “failed to show significant cellular toxicity”. For the same molecule, the “toxicity compared to RA97” value with cells is reported as “lack of toxicity”.

With `CC(C)(Sc1cc(C(C)(C)C)c(O)c(C(C)(C)C)c1)Sc1cc(C(C)(C)C)c(OC(=O)CCC(=O)O)c(C(C)(C)C)c1` [Succinobucol], the insulin sensitivity entry in series [3] (literature) is given as “improve insulin sensitivity”. For the same molecule, in series [3] (numerous clinical trials of specific diabetic patient populations), the drug safety entry is listed as “established drug safety record”.

For `CCCc1nc2ccc(Cl)cc2c(CCC(=O)OCC)c1C(=O)OCC` [T775, ethyl 6-chloro-4-(3-ethoxy-3-oxopropyl)-2-propylquinoline-3-carboxylate], in the series with Akt [1], the “synergy with FBS in Akt activation” value is “synergize with FBS”, the “Akt activation at low dose (phospho-T308)” value is “activate Akt”, the “efficacy … compared to RA97” value is recorded as “improved efficacy” and the “length of action … compared to RA97” value is on record as “improved length of action”. Besides, in the series on Akt [1], the “phosphorylation of Akt substrate PRAS40” value is given as “phosphorylated Akt substrate, PRAS40”. Further, the “cellular toxicity (LDH release)” value in the series on A549 cells is “failed to show significant cellular toxicity”. Besides, the cellular toxicity entry with Hacat cells is on record as “failed to show significant cellular toxicity”. The “toxicity compared to RA97” value in the series with cells is recorded as “lack of toxicity”.

B1: cathepsin G: neutrophil protease Cathepsin G (protein, UniProt P08311 21-244, looked up)
Cathepsin G: IIGGRESRPHSRPYMAYLQIQSPAGQSRCGGFLVREDFVLTAAHCWGSNINVTLGAHNIQRRENTQQHITARRAIRHPQYNQRTIQNDIMLLQLSRRVRRNRNVNPVALPRAQEGLRPGTLCTVAGWGRVSMRRGTDTLREVQLRVQRDRQCLRIFGSYDPRRQICVGDRRERKAAFKGDSGGPLLCNNVAHGIVSYGKSSGVPPEVFTRVSSFLPWIRTTMRS
In the case of B1, the “block of insulin activation of Akt” value in the series on Akt [2] (0.01 U/mL, 4 hr) is “block insulin activation of Akt”.
